These results are taken from publication PMC11273260.

The test system of data set [1] is MCF-7 breast carcinoma cell line. As to the kind of experiment: MTT cytotoxic activity against MCF-7 breast carcinoma cell line. To be noted: Homo sapiens, MCF7, read-out: IC50 (μM) MCF-7.
A further data set concerns the target T1, EGFR kinase (Homo sapiens, UniProt P00533).
T1 construct: purchased BPS Bioscience 40321
As to the kind of experiment: EGFR-TK inhibition assay (BPS Bioscience EGFR Kinase Assay Kit). The data set is classed as biochemical. The source says:
S4.2.1. Cytotoxic activity evaluation
adenocarcinoma (MCF-7) cell line.
Dimethyl sulphoxide (DMSO) in
S4.2.2. EGFR kinase Assay

The test system of data set [2] is MCF-7 cells. As to the kind of experiment: Cell cycle analysis by flow cytometry (PI staining). The data set is classed as cell-based. Here is the method: It is well documented that most tyrosine kinase inhibitors exert strong antiproliferative and pro-apoptotic effect.[38] […] These findings are in agreement with the previously observed for EGFR-TK structural analogues.[39]
S4.2.3. Cell cycle analysis of compound 6h
Cell cycle analysis in MCF-7 cells was investigated using fluorescent […] (BioVision EZCellTM Cell Cycle Analysis Kit Catalog #K920) by flow cytometry assay. MCF-7 cells at a density of 2 × 10^5 per well were harvested and washed twice in PBS. After that, the cells were incubated at 37 °C and 5% CO2. The medium was incubated with the tested compound 6h at the IC50 (µM) for 48 h, washed twice in PBS, fixed with 70% ethanol, rinsed again with PBS. Afterward, medium was stained with DNA fluorochrome PI for 15 min at 37 °C. The samples were immediately analyzed using Facs Calibur flow cytometer (Becton and Dickinson, Heidelberg, […]
S4.2.4. Apoptosis assay for compound 6h
(1 picture or pasted object on this page, not shown here)
(In general: In flow cytometry, cells or beads pass a laser one at a time.)

Data set [3] concerns MCF-7 cells. Briefly: Annexin V FITC/PI apoptosis staining assay by flow cytometry. The class given is cell-based. As to conditions: 2.71 μM, 48 h. An excerpt:
In addition, an increase in the primary apoptotic cells was also observed. It is noteworthy that, the percentage of primary apoptosis was rise from 0.39 to 9.55% as compared to DMSO control (Fig. 4). According to these findings, it could be concluded that this set of compounds could halt MCF-7 cells in G1 phase and provoke apoptotic cellular death.
Apoptosis in MCF-7 cells was investigated using fluorescent Annexin V-FITC/ PI detection kit (BioVision Annexin V-FITC Apoptosis Detection Kit, Catalog #: K101) by flow cytometry assay. MCF-7 cells at a density of 2 × 10^5 per well were treated with compound 6h at the IC50 (µM) for 48 h, then the cells were harvested and stained with Annexin V-FITC/ PI dye for 15 min in the dark at 37 °C. The samples were immediately analyzed using FACS Calibur flow cytometer (Becton and Dickinson, […]

Another data set has as its system p53. Briefly: Apoptotic marker determination by qRT-PCR: p53. To be noted: MCF-7 cells, 2.71 μM, 48 h, compared to DMSO controls. The data set is classed as cell-based. The source says: (§1) p53 is a transcription factor that both initiates and suppresses a number of target genes involved in cancer progression and apoptosis.[40] The p53 protein level increase during cellular stress and cytotoxic drugs by increased transcription or increased stability due to post-translational modifications such as phosphorylation.[41] The ability of p53 to modulate caspase activation and apoptosis induction is critical to its role as tumor suppressor.[42] Coordinately, p53 activation promotes the loss of mitochondrial potential ultimately leading to caspase activation and apoptosis.[43] […] An increase in the level of p53 was detected in the tested cell line compared with controls at 48 h. The increased expression of p53 level was coupled with increase in the level of caspase 9 in compound 6h-treated MCF-7 cell line at 48 h. The levels of p53 and caspase 9 were increased by 7.4- and 8.7-fold, respectively compared with controls (Fig. 5).
(§2) MCF-7 cells were treated with 2.71 μM of tested hybrid for 48 h before qRT-PCR measurement and compared to untreated controls. (A) p53 level; (B) caspase 9 level.

Another data set relates to caspase 9. Briefly: Apoptotic marker determination by qRT-PCR: caspase 9. As to conditions: MCF-7 cells, 2.71 μM, 48 h, compared to DMSO controls. The data set is classed as cell-based.
Excerpt: as §1, §2

Molecules are shown by their SMILES.

T1 sequence (P00533 25-1210): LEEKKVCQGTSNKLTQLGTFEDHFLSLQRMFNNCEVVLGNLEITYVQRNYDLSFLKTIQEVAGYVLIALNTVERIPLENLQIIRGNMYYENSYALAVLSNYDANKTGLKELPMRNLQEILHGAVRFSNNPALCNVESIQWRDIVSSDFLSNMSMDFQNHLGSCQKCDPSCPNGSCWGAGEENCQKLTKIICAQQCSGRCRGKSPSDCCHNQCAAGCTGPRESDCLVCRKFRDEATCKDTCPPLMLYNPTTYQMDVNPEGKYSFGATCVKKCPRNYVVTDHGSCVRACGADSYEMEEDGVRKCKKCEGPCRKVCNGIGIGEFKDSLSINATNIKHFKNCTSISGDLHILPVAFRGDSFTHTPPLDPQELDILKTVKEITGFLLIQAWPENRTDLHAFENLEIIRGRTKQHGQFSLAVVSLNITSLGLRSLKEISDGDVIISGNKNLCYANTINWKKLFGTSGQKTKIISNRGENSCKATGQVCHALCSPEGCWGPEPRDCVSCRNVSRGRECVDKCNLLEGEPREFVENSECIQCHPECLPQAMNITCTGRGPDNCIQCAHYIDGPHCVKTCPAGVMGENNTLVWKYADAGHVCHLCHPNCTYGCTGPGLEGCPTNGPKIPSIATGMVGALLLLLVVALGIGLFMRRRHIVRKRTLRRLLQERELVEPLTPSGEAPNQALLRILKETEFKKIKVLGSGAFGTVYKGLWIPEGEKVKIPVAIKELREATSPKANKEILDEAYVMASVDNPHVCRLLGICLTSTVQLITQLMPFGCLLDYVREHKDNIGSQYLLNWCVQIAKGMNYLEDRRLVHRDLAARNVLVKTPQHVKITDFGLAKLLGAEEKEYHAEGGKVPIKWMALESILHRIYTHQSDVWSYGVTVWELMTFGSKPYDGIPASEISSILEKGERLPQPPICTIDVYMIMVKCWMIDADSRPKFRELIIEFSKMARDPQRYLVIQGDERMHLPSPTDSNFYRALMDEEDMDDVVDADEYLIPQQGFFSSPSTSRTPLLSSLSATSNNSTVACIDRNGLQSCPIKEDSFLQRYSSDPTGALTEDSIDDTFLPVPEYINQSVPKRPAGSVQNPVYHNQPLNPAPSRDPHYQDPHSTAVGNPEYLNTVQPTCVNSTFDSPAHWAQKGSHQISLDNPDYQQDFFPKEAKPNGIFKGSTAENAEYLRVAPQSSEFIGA

As a reminder, the melting point is the temperature of the solid-liquid transition. One may read the IC50 as the midpoint of a concentration-inhibition curve. Consider `COc1ccc(C(=O)N/C(=C\c2cc(OC)c(OC)c(OC)c2)C(=O)NNC(=O)c2cc(-c3ccc(Br)cc3)nc3ccccc23)cc1` [Compound 6d, (Z)-N-(3-(2-(2-(4-Bromophenyl)quinoline-4-carbonyl)hydrazinyl)-3-oxo-1-(3,4,5-trimethoxyphenyl)prop-1-en-2-yl)-4-methoxybenzamide], for which the melting point lay within 208 to 210 °C. For the same compound, in data set [1], the IC50 was 17.1 ± 0.55 µM.

As for `COc1cccc2c1C(=O)c1c(O)c3c(c(O)c1C2=O)C[C@@](O)(C(=O)CO)C[C@@H]3O[C@H]1C[C@H](N)[C@H](O)[C@H](C)O1` [Dox, Doxorubicin, reference compound], the IC50 in data set [1] amounted to 6.18 ± 0.2 µM.

As to `COc1ccc(C(=O)N/C(=C\c2ccc(OC)c(OC)c2OC)C(=O)NNC(=O)c2cc(-c3ccc(Br)cc3)nc3ccccc23)cc1` [Compound 6c, (Z)-N-(3-(2-(2-(4-Bromophenyl)quinoline-4-carbonyl)hydrazinyl)-3-oxo-1-(2,3,4-trimethoxyphenyl)prop-1-en-2-yl)-4-methoxybenzamide], the melting point was 192 to 194 °C. Further, in data set [1], the concentration for half-maximal inhibition (IC50) was 51.8 ± 1.54 µM.

On to `COc1ccc(C(=O)N/C(=C\c2cc(Br)c(OC(C)=O)c(Br)c2)C(=O)NNC(=O)c2cc(-c3ccc(Br)cc3)nc3ccccc23)cc1` [Compound 6i, (Z)-2,6-Dibromo-4-(3-(2-(2-(4-bromophenyl)quinoline-4-carbonyl)hydrazinyl)-2-(4-methoxybenzamido)-3-oxoprop-1-enyl)phenyl acetate], for which the melting point lay within 217 to 219 °C. Besides, the IC50 in data set [1] stood at 8.77 ± 0.28 µM.

`COc1ccc(C(=O)N/C(=C\c2ccc(C)cc2)C(=O)NNC(=O)c2cc(-c3ccc(Br)cc3)nc3ccccc23)cc1` [Compound 6a, (Z)-N-(3-(2-(2-(4-Bromophenyl)quinoline-4-carbonyl)hydrazinyl)-3-oxo-1-p-tolylprop-1-en-2-yl)-4-methoxybenzamide]: the melting point was in the range of 246 to 248 °C. Half-maximal inhibition on EGFR kinase (IC50) was put at 0.31 µM. In addition, the half-maximal inhibitory concentration (IC50) in data set [1] amounted to 3.39 ± 0.11 µM.

In turn, `COc1ccc(C(=O)N/C(=C\c2ccc(OC)c(OC)c2)C(=O)NNC(=O)c2cc(-c3ccc(Br)cc3)nc3ccccc23)cc1` [Compound 6b, (Z)-N-(3-(2-(2-(4-Bromophenyl)quinoline-4-carbonyl)hydrazinyl)-1-(3,4-dimethoxyphenyl)-3-oxoprop-1-en-2-yl)-4-methoxybenzamide] had a melting point of 235 to 237 °C. Besides, in data set [1], the IC50 came to 5.94 ± 0.17 µM.

`COc1ccc(C(=O)N/C(=C\c2ccc(Cl)cc2)C(=O)NNC(=O)c2cc(-c3ccc(Br)cc3)nc3ccccc23)cc1` [Compound 6f, (Z)-N-(3-(2-(2-(4-Bromophenyl)quinoline-4-carbonyl)hydrazinyl)-1-(4-chlorophenyl)-3-oxoprop-1-en-2-yl)-4-methoxybenzamide] gave a melting point of 276 to 278 °C. Further, in data set [1], the IC50 was 26 ± 0.84 µM.

`COc1ccc(C(=O)N/C(=C\c2ccc(F)cc2)C(=O)NNC(=O)c2cc(-c3ccc(Br)cc3)nc3ccccc23)cc1` [Compound 6e, (Z)-N-(3-(2-(2-(4-Bromophenyl)quinoline-4-carbonyl)hydrazinyl)-1-(4-fluorophenyl)-3-oxoprop-1-en-2-yl)-4-methoxybenzamide] gave a melting point of 258 to 260 °C. In addition, in data set [1], the IC50 amounted to 21.2 ± 0.68 µM.

`COc1ccc(C(=O)N/C(=C\c2ccco2)C(=O)NNC(=O)c2cc(-c3ccc(Br)cc3)nc3ccccc23)cc1` [Compound 5, (Z)-N-(3-(2-(2-(4-Bromophenyl)quinoline-4-carbonyl)hydrazinyl)-1-(furan-2-yl)-3-oxoprop-1-en-2-yl)-4-methoxybenzamide] displayed a melting point of 257 to 259 °C. Also, the half-maximal inhibitory concentration (IC50) in data set [1] amounted to 12.5 ± 0.4 µM.

With `COc1ccc(C(=O)N/C(=C\c2ccc(Br)cc2)C(=O)NNC(=O)c2cc(-c3ccc(Br)cc3)nc3ccccc23)cc1` [Compound 6g, (Z)-N-(1-(4-Bromophenyl)-3-(2-(2-(4-bromophenyl)quinoline-4-carbonyl)hydrazinyl)-3-oxoprop-1-en-2-yl)-4-methoxybenzamide], the melting point lay within 261 to 263 °C. Moreover, the IC50 in data set [1] came to 39.1 ± 1.26 µM.

As for `COc1ccc(C(=O)N/C(=C\c2ccc([N+](=O)[O-])cc2)C(=O)NNC(=O)c2cc(-c3ccc(Br)cc3)nc3ccccc23)cc1` [Compound 6h, (Z)-N-(3-(2-(2-(4-Bromophenyl)quinoline-4-carbonyl)hydrazinyl)-1-(4-nitrophenyl)-3-oxoprop-1-en-2-yl)-4-methoxybenzamide], the half-inhibitory concentration (IC50) at EGFR kinase was 0.22 µM; in data set [1] it was 2.71 ± 0.09 µM. For the same compound, in the data set on MCF-7 cells [2] (2.71 μM), the “G1 phase arrest, fold more than DMSO controls” value is reported as 1.3 fold. Further, the “percentage of cells in G2/M phase” value in the data set on MCF-7 cells [2] (2.71 μM (IC50) of compound, 48 h, DMSO control 15.56%) was found to be 9.37%. In addition, the “percentage of cells in S phase” value in the data set with MCF-7 cells [2] (2.71 μM (IC50) of compound, 48 h, DMSO control 37.51%) is reported as 28.48%. For the same compound, the “proportion of cells in G1 phase” value with MCF-7 cells [2] (2.71 μM (IC50) of compound, 48 h, DMSO control 46.93%) came to 62.15%. The “percentage of secondary cellular apoptosis” value in the data set with MCF-7 cells [3] (DMSO control 0.11%) came out at 17.78%. Also, the “percentage of primary apoptosis” value with MCF-7 cells [3] (DMSO control 0.39%) was determined as 9.55%. Besides, the “increase of p53 level vs controls” value with p53 is 7.4 fold. Moreover, the “increase of caspase 9 level vs controls” value with caspase 9 turned out to be 8.7 fold.
